Experimental findings from patent publication US12655142B2 (Merck Patent GmbH, priority 2019, dated 2026) are described below.

pIC50: −log10 of the molar value.

Test [1] concerns the target T1, c-Kit(V654A) (Homo sapiens, UniProt P10721, V654A).
T1 construct: recombinant human c-Kit, amino acids 544-end containing the V654A mutation; GST (N)
Description: c-Kit(V654A) assay (33P-ATP filter binding kinase assay). Type of test: biochemical. The conditions noted are these: recombinant human c-Kit aa 544-end V654A, ATP 200 μM. How it is done: c-Kit(V654A) (N-terminal GST-tagged, recombinant human c-Kit, amino acids 544-end containing the V654A mutation) is incubated with 8 mM MOPS pH 7.0, 0.2 mM EDTA, 250 μM GGMEDIYEFMGGKKK, 10 mM MgAcetate and [gamma-33P-ATP] (specific activity approx. 500 cpm/pmol, concentration 200 μM). The reaction is initiated by the addition of the MgATP mix. After incubation for 40 minutes at room temperature, the reaction is stopped by the addition of 3% phosphoric acid solution. 10 μL of the reaction is then spotted onto a P30 filtermat and washed three times for 5 minutes in 75 mM phosphoric acid and once in methanol prior to drying and scintillation counting.

The target of test [2] is T2, GIST430/654 cell line expressing mutated constitutively active cKIT receptor tyrosine kinase (Δ560-576 deletion and V654A point mutation) (Homo sapiens, UniProt P10721, DEL560-576/V654A).
T2 construct: endogenous in cells; host or cells: GIST430/654 cells
T2 sequence (P10721 with tags, fused parts or gaps DEL560-576/V654A): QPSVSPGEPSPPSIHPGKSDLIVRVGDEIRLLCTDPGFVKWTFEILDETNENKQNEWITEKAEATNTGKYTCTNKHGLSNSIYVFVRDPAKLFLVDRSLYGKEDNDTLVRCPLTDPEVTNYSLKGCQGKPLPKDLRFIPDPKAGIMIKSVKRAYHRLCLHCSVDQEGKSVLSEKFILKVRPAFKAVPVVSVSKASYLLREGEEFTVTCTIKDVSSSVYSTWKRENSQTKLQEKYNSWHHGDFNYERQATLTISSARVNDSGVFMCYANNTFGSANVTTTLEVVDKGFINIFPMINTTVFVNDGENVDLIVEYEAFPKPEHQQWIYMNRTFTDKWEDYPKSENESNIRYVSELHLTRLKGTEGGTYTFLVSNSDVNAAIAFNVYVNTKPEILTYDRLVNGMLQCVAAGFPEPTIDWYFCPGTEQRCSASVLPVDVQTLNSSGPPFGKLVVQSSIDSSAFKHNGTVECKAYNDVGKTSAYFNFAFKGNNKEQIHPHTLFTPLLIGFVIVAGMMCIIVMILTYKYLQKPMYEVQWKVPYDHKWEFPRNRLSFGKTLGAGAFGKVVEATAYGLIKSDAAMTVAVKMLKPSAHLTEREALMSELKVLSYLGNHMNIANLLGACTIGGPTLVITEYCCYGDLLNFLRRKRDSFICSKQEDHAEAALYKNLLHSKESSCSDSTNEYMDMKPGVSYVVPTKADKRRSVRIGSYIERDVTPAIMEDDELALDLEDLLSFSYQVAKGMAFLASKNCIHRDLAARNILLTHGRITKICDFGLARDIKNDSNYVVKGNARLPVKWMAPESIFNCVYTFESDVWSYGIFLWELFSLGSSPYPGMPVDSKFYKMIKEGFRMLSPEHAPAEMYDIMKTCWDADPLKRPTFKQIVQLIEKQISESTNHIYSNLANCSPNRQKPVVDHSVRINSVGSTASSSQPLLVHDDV
In words: Cellular cKIT autophosphorylation (phospho-Y307-cKIT, Luminex bead assay) in GIST430/654 cells. As to conditions: compounds 45 min, read-out: GIST 430/654 IC50. Type of test: cell-based. How it is done: Assay Principle for Cellular Testing of cKIT Mutant Inhibitors
The GIST430 cell line expressing constitutive active cKIT receptor tyrosine kinase (Δ560-576 deletion) and the Imatinib resistant GIST430/654 cell line expressing mutated constitutively active cKIT receptor tyrosine kinase (Δ560-576 deletion and V654A point mutation) were employed for assessing cellular potency of compounds. Cellular activity of mutant cKIT was determined by the degree of cKIT autophosphorylation at tyrosine 307 using a Luminex-based bead assay. GIST430 cells were plated with 22,000 cells per well of a 96-well plate in 100 μl medium (85% IMDM/15% FCS) and GIST430/654 cells were plated with 25,000 cells per well of a 96-well plate in 100 μl medium (85% IMDM/15% FCS supplemented with 100 nM Imatinib). At the following day compounds were added in a serial dilution for 45 min. Then, cells were lysed with 90 μl lysis buffer (20 mM Hepes pH 7.5, 200 mM NaCl, 1.5 mM MgCl2×6H2O, 0.4 mM EDTA, 1% Triton-X-100, 1% Phosphatase-Inhibitor II, 20 mM β-Glycerolphosphat, 0.1% Protease-Inhibitor Cocktail III, 0.01% Benzonase) and lysates were cleared by centrifugation through a 96-well filter plate (0.65 μm). Samples were incubated with Luminex-beads which were coupled with an anti-total cKIT antibody overnight at 4° C. under gentle agitation. For detection of phospho-Y307-cKIT a phosphospecific antibody and a species-specific PE-labeled secondary antibody were added. The amount of phospho-Y307-cKIT was determined in a Luminex 200 instrument measuring 100 events per well within 60 seconds.
Counts from samples treated with compounds were calculated as percent of control from solvent treated (0.3% DMSO) samples. Dose-response curves were fitted and IC50 values were determined using Genedata Screener software.

T1 sequence (P10721 544-976 V654A): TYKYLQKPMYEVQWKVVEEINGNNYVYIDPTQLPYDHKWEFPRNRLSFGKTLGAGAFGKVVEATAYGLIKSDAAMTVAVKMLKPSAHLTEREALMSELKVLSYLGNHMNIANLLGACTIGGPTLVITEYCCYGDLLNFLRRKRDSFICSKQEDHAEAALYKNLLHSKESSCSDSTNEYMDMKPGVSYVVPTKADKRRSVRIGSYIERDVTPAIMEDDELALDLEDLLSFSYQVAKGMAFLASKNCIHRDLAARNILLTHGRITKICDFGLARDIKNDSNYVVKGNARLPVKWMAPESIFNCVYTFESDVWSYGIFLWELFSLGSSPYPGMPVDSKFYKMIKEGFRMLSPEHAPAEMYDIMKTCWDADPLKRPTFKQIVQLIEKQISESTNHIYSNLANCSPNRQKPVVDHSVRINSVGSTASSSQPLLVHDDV

As for `Cc1ccn2c(-c3cc(NCc4ccc(-c5cnn(C)c5)cc4)ncn3)cnc2c1` [A66, [6-(7-methyl-imidazo[1,2-a]pyridin-3-yl)-pyrimidin-4-yl]-[4-(1-methyl-1H-pyrazol-4-yl)-benzyl]-amine], the pIC50 in test [1] is 8.11; in test [2], 6.72.

For the compound `c1cn(-c2ccc(CNc3cc(-c4cnc5cc(OCCN6CCOCC6)ccn45)ncn3)cc2)nn1` [A68, {6-[7-(2-morpholin-4-yl-ethoxy)-imidazo[1,2-a]pyridin-3-yl]-pyrimidin-4-yl}-(4-[1,2,3]triazol-1-yl-benzyl)-amine], the pIC50 in test [1] is 8.24; in test [2], 7.20.

Take `COc1cc2ncc(-c3cc(NCc4ccc(-c5cnn(C)c5)cc4)ncn3)n2cc1F` [A69, [6-(6-fluoro-7-methoxy-imidazo[1,2-a]pyridin-3-yl)-pyrimidin-4-yl]-[4-(1-methyl-1H-pyrazol-4-yl)-benzyl]-amine]: the pIC50 in test [1] was 7.89; in test [2] it was 6.62.

Consider `c1cn(-c2ccc(CNc3cc(-c4cnc5cc(OCCN6CCCC6)ccn45)ncn3)cc2)nn1` [A70, {6-[7-(2-pyrrolidin-1-yl-ethoxy)-imidazo[1,2-a]pyridin-3-yl]-pyrimidin-4-yl}-(4-[1,2,3]triazol-1-yl-benzyl)-amine], for which the pIC50 is 7.68 in test [1] and 6.64 in test [2].

As for `Cn1cc(-c2ccc(CNc3cc(-c4cnc5cc(OCc6ccccc6)ccn45)ncn3)cc2)cn1` [A72, 6-[7-(benzyloxy)imidazo[1,2-a]pyridin-3-yl]-N-{[4-(1-methyl-1H-pyrazol-4-yl)phenyl]methyl}pyrimidin-4-amine], the pIC50 in test [1] is 7.14; in test [2], 6.27.

On to `Cn1cc(-c2ccc(CNc3cc(-c4cnc5cc([N+](=O)[O-])ccn45)ncn3)cc2)cn1` [A81, N-{[4-(1-methyl-1H-pyrazol-4-yl)phenyl]methyl}-6-{7-nitroimidazo[1,2-a]pyridin-3-yl}pyrimidin-4-amine], for which the pIC50 in test [1] is 7.57; in test [2], 6.01.

For the compound `Cn1cc(-c2ccc(CNc3cc(-c4cnc5cc(Cl)ccn45)ncn3)cc2)cn1` [A82, 6-{7-chloroimidazo[1,2-a]pyridin-3-yl}-N-{[4-(1-methyl-1H-pyrazol-4-yl)phenyl]methyl}pyrimidin-4-amine], the pIC50 in test [1] was 8.04; in test [2] it was 6.57.

For the compound `CN1CCN(CCOc2ccn3c(-c4cc(OCc5ccc(-c6cnn(C)c6)cc5)ncn4)cnc3c2)CC1` [A86, 7-[2-(4-methyl-piperazin-1-yl)-ethoxy]-3-{6-[4-(1-methyl-1H-pyrazol-4-yl)-benzyloxy]-pyrimidin-4-yl}-imidazo[1,2-a]pyridine], the results for the pIC50 in test [1] and in test [2] were 8.30 and 6.96, respectively.

With `Cn1cc(-c2ccc(COc3cc(-c4cnc5cc(OCCN6CCCC6)ccn45)ncn3)cc2)cn1` [A87, 3-{6-[4-(1-methyl-1H-pyrazol-4-yl)-benzyloxy]-pyrimidin-4-yl}-7-(2-pyrrolidin-1-yl-ethoxy)-imidazo[1,2-a]pyridine], the pIC50 in test [1] is 7.96; in test [2] it was 6.30.

Take `Cn1cc(-c2ccc(CNc3cc(-c4cnc5cc(OCCCN6CCOCC6=O)ccn45)ncn3)cc2)cn1` [A88, 4-[3-({3-[6-({[4-(1-methyl-1H-pyrazol-4-yl)phenyl]methyl}amino)pyrimidin-4-yl]imidazo[1,2-a]pyridin-7-yl}oxy)propyl]morpholin-3-one]: the pIC50 in test [1] was 7.92; in test [2], 7.05.

With `Cn1cc(-c2ccc(CNc3cc(-c4cnc5cc(OCCN6CCC(F)C6)ccn45)ncn3)cc2)cn1` (centres unmarked) [A89, 6-{7-[2-(3-fluoropyrrolidin-1-yl)ethoxy]imidazo[1,2-a]pyridin-3-yl}-N-{[4-(1-methyl-1H-pyrazol-4-yl)phenyl]methyl}pyrimidin-4-amine], the values for the pIC50 in test [1] and in test [2] were 8.07 and 7.09, respectively.

Turning to `Cn1cc(-c2ccc(COc3cc(-c4cnc5cc(OCCN6CCC(F)(F)C6)ccn45)ncn3)cc2)cn1` [A90, 7-[2-(3,3-difluoro-pyrrolidin-1-yl)-ethoxy]-3-{6-[4-(1-methyl-1H-pyrazol-4-yl)-benzyloxy]-pyrimidin-4-yl}-imidazo[1,2-a]pyridine], the pIC50 was 8.00 in test [1] and 6.59 in test [2].

With `Cn1cc(-c2ccc(CNc3cc(-c4cnc5cc(OCCN6CCOCC6=O)ccn45)ncn3)cc2)cn1` [A92, 4-[2-({3-[6-({[4-(1-methyl-1H-pyrazol-4-yl)phenyl]methyl}amino)pyrimidin-4-yl]imidazo[1,2-a]pyridin-7-yl}oxy)ethyl]morpholin-3-one], the pIC50 was 8.09 in test [1] and 7.06 in test [2].

With `CN1CCN(CCOc2ccn3c(-c4cc(NCc5ccc(-c6cnn(C)c6)cc5)ncn4)cnc3c2)CC1=O` [A93, 1-methyl-4-[2-({3-[6-({[4-(1-methyl-1H-pyrazol-4-yl)phenyl]methyl}amino)pyrimidin-4-yl]imidazo[1,2-a]pyridin-7-yl}oxy)ethyl]piperazin-2-one], the results for the pIC50 in test [1] and in test [2] were 7.89 and 6.96, respectively.

Turning to `CN1CCN(CCCOc2ccn3c(-c4cc(NCc5ccc(-c6cnn(C)c6)cc5)ncn4)cnc3c2)CC1` [A94, N-{[4-(1-methyl-1H-pyrazol-4-yl)phenyl]methyl}-6-{7-[3-(4-methylpiperazin-1-yl)propoxy]imidazo[1,2-a]pyridin-3-yl}pyrimidin-4-amine], the pIC50 was 8.17 in test [1] and 7.19 in test [2].

On to `Cn1cc(-c2ccc(CNc3cc(-c4cnc5cc(OCCN6CCN(C7COC7)CC6=O)ccn45)ncn3)cc2)cn1` [A95, 1-[2-({3-[6-({[4-(1-methyl-1H-pyrazol-4-yl)phenyl]methyl}amino)pyrimidin-4-yl]imidazo[1,2-a]pyridin-7-yl}oxy)ethyl]-4-(oxetan-3-yl)piperazin-2-one], for which the pIC50 in test [1] is 8.01; in test [2] it was 6.68.

As for `CN1CCN(CCCOc2ccn3c(-c4cc(NCc5ccc(-c6cnn(C)n6)cc5)ncn4)cnc3c2)CC1` [A96, N-{[4-(2-methyl-2H-1,2,3-triazol-4-yl)phenyl]methyl}-6-{7-[3-(4-methylpiperazin-1-yl)propoxy]imidazo[1,2-a]pyridin-3-yl}pyrimidin-4-amine], the pIC50 in test [1] was 8.54; in test [2] it was 7.51.

For `Cn1ncc(-c2ccc(CNc3cc(-c4cnc5cc(OCCc6nccn6C)ccn45)ncn3)cc2)n1` [A98, (6-{7-[2-(1-methyl-1H-imidazol-2-yl)-ethoxy]-imidazo[1,2-a]pyridin-3-yl}-pyrimidin-4-yl)-[4-(2-methyl-2H-[1,2,3]triazol-4-yl)-benzyl]-amine], the pIC50 in test [1] was 8.08; in test [2], 7.01.

For `Cn1cc(-c2ccc(CNc3cc(-c4cnc5cc(OCCCN6CCC(F)(F)C6)ccn45)ncn3)cc2)cn1` [A101, 6-{7-[3-(3,3-difluoropyrrolidin-1-yl)propoxy]imidazo[1,2-a]pyridin-3-yl}-N-{[4-(1-methyl-1H-pyrazol-4-yl)phenyl]methyl}pyrimidin-4-amine], the figures for the pIC50 in test [1] and in test [2] were 7.66 and 6.82, respectively.

Take `Cn1cc(-c2ccc(CNc3cc(-c4cnc5cc(OCCN6CC7CC(C6)O7)ccn45)ncn3)cc2)cn1` [A103, [4-(1-methyl-1H-pyrazol-4-yl)-benzyl]-(6-{7-[2-(6-oxa-3-aza-bicyclo[3.1.1]hept-3-yl)-ethoxy]-imidazo[1,2-a]pyridin-3-yl}-pyrimidin-4-yl)-amine]: the pIC50 in test [1] is 8.02; in test [2], 6.92.

For the compound `Cn1ncc(-c2ccc(CNc3cc(-c4cnc5cc(OCCN6CCC(F)(F)C6)ccn45)ncn3)cc2)n1` [A105, (6-{7-[2-(3,3-difluoro-pyrrolidin-1-yl)-ethoxy]-imidazo[1,2-a]pyridin-3-yl}-pyrimidin-4-yl)-[4-(2-methyl-2H-[1,2,3]triazol-4-yl)-benzyl]-amine], the pIC50 in test [1] was 8.02; in test [2] it was 6.92.

As to `Cn1ncc(-c2ccc(CNc3cc(-c4cnc5cc(OCc6ccccn6)ccn45)ncn3)cc2)n1` [A106, [4-(2-methyl-2H-[1,2,3]triazol-4-yl)-benzyl]-{6-[7-(pyridin-2-ylmethoxy)-imidazo[1,2-a]pyridin-3-yl]-pyrimidin-4-yl}-amine], the pIC50 was 8.02 in test [1] and 6.43 in test [2].
